pIC50: −log10 of the molar value.
What was measured:
[1] = system: NF2−/− Schwannoma cells; assay: Growth inhibition of NF2 deficient cells (CellTiter-Glo); assay type: cell-based; details: 1 uM concentration, FIG. 6
Method: (§1) NF2 deficient cell lines were cultured in the appropriate medium. Once enough cells have propagated, plates of all adherent lines were seeded at 5,000-10,000 cells/well (depending on cell line) in a total volume of 50 μL, and plates of all suspension lines at 10,000-20,000 cells/well (depending on cell line) in a total volume of 50 μL. Plates were placed in a humidified cell culture incubator overnight to allow adherent cells to attach.
(§2) 10 mM stocks of each PAK inhibitor compound in DMSO were prepared. Dilutions were performed with media to provide 1% DMSO 2× stock solutions of each PAK inhibitor compound.
(§3) 50 μL of all PAK inhibitor compound 2× stocks were added to appropriate wells already containing 50 μL of cells and medium to expose cells to the final concentrations of compounds required. 50 μL of media was added to media and cell control wells and 50 μL of mix to vehicle control wells. At the same time as drug exposure, a CTG (CellTiter-Glo Assay) assay was performed on the 0 hr plate to obtain a 0 hr count. Cells were exposed to PAK inhibitor compounds or a DMSO control for 72 hours. Following the 72 hour exposure period, all remaining plates were assayed using CTG.
(§4) At the end of the 72 hour exposure period, plates were removed for a CTG assay from 37° C., 5% CO2 incubator and place on the bench at room temperature for 30 mins. 100 μL CTG reagent was added to each well, mixed for 2 minutes, followed by a further 10 minute incubation at room temperature. Luminescence for each well was determined.
(§5) Growth inhibition percent was calculated using the following equation: (Growth %=(Sample Value−T0Ave)/(Max−T0Ave)*100).
NF2^−/− Schwannoma cells were treated with a DMSO control or a PAK inhibitor compound (1 uM concentration) disclosed in Examples 101, 122, or 190.

[2] = system: NF2−/− mesothelioma cells (NCI-H226); assay: as above; assay type: cell-based; details: 0 μM-30 μM, 72 hours, FIG. 7
Method: as §1, §2, §3, §4, §5
NF2^−/− mesothelioma cells (e.g., NCI-H226 cells) were treated with varying concentrations of a PAK inhibitor compound disclosed in Examples 33, 84, or 122.

[3] = system: EBC-1 cells; assay: Growth inhibition of PAK1 amplified NSCLC cells (CellTiter-Glo); assay type: cell-based; details: 0 μM-30 μM, 72 hours, FIG. 8
Method: as §1, with “The PAK1 amplified” for “NF2 deficient”
as §2
as §3, with “50” for “50 μL of all PAK inhibitor compound 2× stocks were added to appropriate wells already containing 50 μL of cells and medium to expose cells to the final concentrations of compounds required. 50”
as §4, §5

[4] = system: NCI-H520 cells; assay: as above; assay type: cell-based; details: 0 μM-30 μM, 72 hours, FIG. 9
Method: as §1, with “The PAK1 amplified” for “NF2 deficient”
as §2
as §3, with “50” for “50 μL of all PAK inhibitor compound 2× stocks were added to appropriate wells already containing 50 μL of cells and medium to expose cells to the final concentrations of compounds required. 50”
as §4, §5

[5] = system: SK-MES-1 cells; assay: as above; assay type: cell-based; details: 0 μM-30 μM, 72 hours, FIG. 10
Method: as §1, with “The PAK1 amplified” for “NF2 deficient”
as §2
as §3, with “50” for “50 μL of all PAK inhibitor compound 2× stocks were added to appropriate wells already containing 50 μL of cells and medium to expose cells to the final concentrations of compounds required. 50”
as §4, §5

[6] = biological target: PAK1 (Homo sapiens, UniProt Q13153); assay: In vitro PAK inhibition assay (SelectScreen, Ser/Thr 19 peptide); assay type: biochemical
Summary of the method: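 Ten-point, 3-fold compound series at 1% final DMSO were incubated with enzyme, Ser/Thr 19 peptide and ATP for 60 min at room temperature. Buffer was HEPES pH 7.5 (50 mM) with 10 mM MgCl2, 1 mM EGTA, 0.01% BRIJ-35. A 60 min development step preceded the fluorescence read converted to % phosphorylation.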

[7] = biological target: PAK2 (PAK65) (Homo sapiens, UniProt Q13177); assay: In vitro PAK inhibition assay (SelectScreen, Ser/Thr 20 peptide); assay type: biochemical
Summary of the method: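 Ten-point threefold compound dilutions (1% DMSO) were incubated with PAK2 (0.29-6 ng) and Ser/Thr 20 substrate (2 μM) for 60 min at room temperature in HEPES pH 7.5 buffer with MgCl2, EGTA and BRIJ-35.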

[8] = biological target: PAK3 (Homo sapiens, UniProt O75914); assay: as above; assay type: biochemical
Summary of the method: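 Fluorescence-based development format: after a 60-min room-temperature kinase reaction and 60-min protease development, percent phosphorylation of Ser/Thr 20 peptide calculated via phosphopeptide controls. Buffer 50 mM HEPES pH 7.5, 10 mM MgCl2, 1 mM EGTA, 0.01% BRIJ-35; compounds at 1% DMSO, 10-point 3-fold dilution series.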

[9] = biological target: PAK4 (Homo sapiens, UniProt O96013); assay: as above; assay type: biochemical
Summary of the method: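 Ten-point, 3-fold compound series (1% DMSO) incubated 1 h at room temperature with PAK4 (0.1-0.75 ng) and 2 μM Ser/Thr 20 peptide, HEPES pH 7.5 buffer with MgCl2, EGTA, BRIJ-35. Development reagent cleaves non-phosphorylated peptide; fluorescence emission ratio gives % phosphorylation, fitted sigmoidally for IC50.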

PAK1, sequence (Q13153 whole entry): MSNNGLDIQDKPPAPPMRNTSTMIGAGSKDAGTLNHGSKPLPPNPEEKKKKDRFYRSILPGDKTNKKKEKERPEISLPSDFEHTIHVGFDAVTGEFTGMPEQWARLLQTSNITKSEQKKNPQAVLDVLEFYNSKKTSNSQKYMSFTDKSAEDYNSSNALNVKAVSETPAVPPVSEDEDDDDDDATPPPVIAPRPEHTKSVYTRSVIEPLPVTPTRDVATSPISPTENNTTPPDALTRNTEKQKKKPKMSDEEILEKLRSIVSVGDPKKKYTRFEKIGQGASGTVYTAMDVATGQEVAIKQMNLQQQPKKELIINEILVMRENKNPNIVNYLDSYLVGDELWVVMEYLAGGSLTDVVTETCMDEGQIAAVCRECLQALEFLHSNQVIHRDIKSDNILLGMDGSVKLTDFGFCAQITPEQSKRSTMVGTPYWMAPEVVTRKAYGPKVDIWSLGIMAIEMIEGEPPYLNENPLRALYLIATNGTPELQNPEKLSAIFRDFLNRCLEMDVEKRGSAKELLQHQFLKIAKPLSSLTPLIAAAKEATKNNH
PAK4, sequence (O96013 whole entry): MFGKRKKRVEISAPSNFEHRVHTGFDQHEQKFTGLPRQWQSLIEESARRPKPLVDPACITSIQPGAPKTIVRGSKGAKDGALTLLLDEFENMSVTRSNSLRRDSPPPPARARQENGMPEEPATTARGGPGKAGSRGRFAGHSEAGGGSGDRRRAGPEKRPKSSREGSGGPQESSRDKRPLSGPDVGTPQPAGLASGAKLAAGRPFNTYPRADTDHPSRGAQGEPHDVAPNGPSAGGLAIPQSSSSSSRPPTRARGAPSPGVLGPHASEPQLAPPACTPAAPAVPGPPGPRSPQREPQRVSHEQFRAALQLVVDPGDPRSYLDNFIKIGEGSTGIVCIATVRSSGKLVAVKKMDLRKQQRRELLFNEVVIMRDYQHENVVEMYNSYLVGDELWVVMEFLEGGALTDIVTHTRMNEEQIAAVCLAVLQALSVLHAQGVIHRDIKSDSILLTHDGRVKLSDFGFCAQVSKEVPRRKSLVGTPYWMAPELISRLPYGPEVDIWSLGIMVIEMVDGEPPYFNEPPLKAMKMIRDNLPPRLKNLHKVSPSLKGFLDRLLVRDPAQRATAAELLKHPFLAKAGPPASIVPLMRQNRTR
PAK3, sequence (O75914 whole entry): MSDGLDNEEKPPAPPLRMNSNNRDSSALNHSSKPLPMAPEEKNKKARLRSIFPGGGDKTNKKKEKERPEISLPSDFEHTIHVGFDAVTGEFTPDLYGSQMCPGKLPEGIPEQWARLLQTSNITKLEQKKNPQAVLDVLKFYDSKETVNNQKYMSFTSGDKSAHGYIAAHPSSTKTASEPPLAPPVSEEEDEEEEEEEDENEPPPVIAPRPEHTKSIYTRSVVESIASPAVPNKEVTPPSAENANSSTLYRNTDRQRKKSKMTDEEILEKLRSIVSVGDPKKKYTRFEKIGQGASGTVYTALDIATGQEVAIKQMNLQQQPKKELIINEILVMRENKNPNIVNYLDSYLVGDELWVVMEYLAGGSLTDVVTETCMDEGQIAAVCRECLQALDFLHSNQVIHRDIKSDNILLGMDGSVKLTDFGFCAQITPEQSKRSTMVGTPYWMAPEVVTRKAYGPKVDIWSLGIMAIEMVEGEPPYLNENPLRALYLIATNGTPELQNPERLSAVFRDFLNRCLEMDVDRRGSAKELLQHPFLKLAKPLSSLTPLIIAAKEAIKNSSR
PAK2 (PAK65), sequence (Q13177 whole entry): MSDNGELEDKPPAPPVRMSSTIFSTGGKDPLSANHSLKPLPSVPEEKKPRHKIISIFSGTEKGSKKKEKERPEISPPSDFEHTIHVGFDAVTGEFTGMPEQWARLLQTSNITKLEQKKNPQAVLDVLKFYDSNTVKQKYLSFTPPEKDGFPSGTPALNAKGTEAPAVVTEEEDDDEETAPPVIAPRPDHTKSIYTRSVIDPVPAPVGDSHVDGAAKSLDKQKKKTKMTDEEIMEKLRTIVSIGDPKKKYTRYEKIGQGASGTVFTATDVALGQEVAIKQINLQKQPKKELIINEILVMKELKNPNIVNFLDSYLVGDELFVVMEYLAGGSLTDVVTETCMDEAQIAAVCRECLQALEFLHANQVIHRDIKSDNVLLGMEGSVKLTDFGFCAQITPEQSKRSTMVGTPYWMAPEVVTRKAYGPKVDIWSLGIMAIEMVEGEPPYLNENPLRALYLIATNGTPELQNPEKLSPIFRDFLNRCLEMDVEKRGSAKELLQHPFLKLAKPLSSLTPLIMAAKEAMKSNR

SMILES | pIC50 [6] | pIC50 [7] | pIC50 [8] | pIC50 [9] | cell number compared to DMSO control treated cells [1] | growth (%) with increasing concentration [2] | growth (%) with increasing concentration [3] | growth (%) with increasing concentration [4] | growth (%) with increasing concentration [5]
CCn1c(=O)c(-c2ccc(-c3cnc(C)s3)cc2Cl)cc2cnc(Nc3ccc(C4CCN(C)CC4)cc3)nc21 [Example 101] |  |  |  |  | reduction in cell number |  |  |  | 
CCn1c(=O)c(-c2ccc(-c3cncc(C)n3)cc2Cl)cc2cnc(Nc3ccc(C4CCN(C)CC4)cc3)nc21 [Example 190] |  |  |  |  | reduction in cell number |  |  |  | 
CCn1c(=O)c(-c2ccc(-c3noc(C)n3)cc2Cl)cc2cnc(Nc3ccc(C4CCN(C)CC4)cc3)nc21 [Example 122] |  |  |  |  | reduction in cell number | the growth (%) of the cells reduced | the growth (%) decreased | the growth (%) decreased | the growth (%) decreased
CCn1c(=O)c(-c2ccc(-c3ccnc(C)c3)cc2Cl)cc2cnc(Nc3ccc(C4CCN(C)CC4)cc3)nc21 | < 5.30 | > 7.30 | > 7.30 | 5.30 to 6.30 |  |  |  |  | 
CCn1c(=O)c(-c2ccc(-c3ccc(C(=O)NC)nc3)cc2Cl)cc2cnc(Nc3ccc(C4CCN(C)CC4)cc3)nc21 | 5.30 to 6.30 | 6.30 to 7.30 | < 5.30 | ≤ 5.30 |  |  |  |  | 
CCn1c(=O)c(-c2ccc(-c3ccoc3)cc2)cc2cnc(Nc3ccc(N4CCN(C)CC4)cc3)nc21 | 6.30 to 7.30 | < 5.30 | < 5.30 | ≤ 5.30 |  |  |  |  | 
CCn1c(=O)c(-c2ccc(-c3cnc(C)s3)nc2)cc2cnc(Nc3ccc(C4CCN(C)CC4)cc3)nc21 | 5.30 to 6.30 | 5.30 to 6.30 | 5.30 to 6.30 | ≤ 5.30 |  |  |  |  | 
CCn1c(=O)c(-c2ccc(-c3ccon3)s2)cc2cnc(Nc3ccc(N4CCN(C)CC4)cc3)nc21 | < 5.30 | < 5.30 | < 5.30 | ≤ 5.30 |  |  |  |  | 
CCn1c(=O)c(-c2ccc(-c3cnc(C)s3)cn2)cc2cnc(Nc3ccc(C4CCN(C)CC4)cc3)nc21 | 5.30 to 6.30 | < 5.30 | < 5.30 | ≤ 5.30 |  |  |  |  | 
CN1CCC(c2ccc(Nc3ncc4cc(-c5cc(F)c(-c6cccnc6F)cc5Cl)c(=O)n(C)c4n3)cc2)CC1 | > 7.30 | > 7.30 | 6.30 to 7.30 | ≤ 5.30 |  |  |  |  | 
CCn1c(=O)c(-c2ccc(-c3noc(C)n3)cc2Cl)cc2cnc(Nc3ccc(CCN4CCOCC4)cc3)nc21 | 6.30 to 7.30 | 6.30 to 7.30 | 6.30 to 7.30 | ≤ 5.30 |  |  |  |  | 
CCc1cc(-c2ccc(-c3cc4cnc(Nc5ccc(C6CCN(C)CC6)cc5)nc4n(CC)c3=O)c(Cl)c2)ncn1 | > 7.30 | > 7.30 | 6.30 to 7.30 | ≤ 5.30 |  |  |  |  | 

Continued, in another order:

pIC50 [6] | pIC50 [7] | pIC50 [8] | pIC50 [9] | SMILES | cell number compared to DMSO control treated cells [1] | growth (%) with increasing concentration [2] | growth (%) with increasing concentration [3] | growth (%) with increasing concentration [4] | growth (%) with increasing concentration [5]
> 7.30 | 6.30 to 7.30 | 6.30 to 7.30 | ≤ 5.30 | CCn1c(=O)c(-c2ccc(-c3cnc(C)o3)cc2Cl)cc2cnc(Nc3ccc(C4CCN(C)CC4)cc3)nc21 |  |  |  |  | 
> 7.30 | > 7.30 | > 7.30 | ≤ 5.30 | CCn1c(=O)c(-c2ccc(-c3cncnc3)cc2Cl)cc2cnc(Nc3ccc(N4CCN(C(C)C)CC4)c(F)c3)nc21 |  |  |  |  | 
> 7.30 | > 7.30 | > 7.30 | 5.30 to 6.30 | CCN(CC)CCc1ccc(Nc2ncc3cc(-c4ccc(-c5cnc(C)s5)cc4Cl)c(=O)n(CC)c3n2)cc1 |  |  |  |  | 
> 7.30 | > 7.30 | > 7.30 | 5.30 to 6.30 | CCN1CCN(c2ccc(Nc3ncc4cc(-c5ccc(-c6cncnc6)cc5Cl)c(=O)n(CC)c4n3)cc2)CC1 |  |  |  |  | 
> 7.30 | > 7.30 | > 7.30 | ≤ 5.30 | CCn1c(=O)c(-c2ccc(-c3cncnc3)cc2Cl)cc2cnc(Nc3ccc(C4CN(C)CCO4)cc3)nc21 (stereo not drawn) |  |  |  |  | 
> 7.30 | > 7.30 | > 7.30 | 5.30 to 6.30 | CCn1c(=O)c(-c2ccc(-c3noc(C)n3)cc2Cl)cc2cnc(Nc3ccc(C4=CCNCC4)cc3)nc21 |  |  |  |  | 
> 7.30 | > 7.30 | 6.30 to 7.30 | 5.30 to 6.30 | CCn1c(=O)c(-c2ccc(-c3ccc(C)nc3)cc2Cl)cc2cnc(Nc3ccc(C4CCNCC4)cc3)nc21 |  |  |  |  | 
> 7.30 | > 7.30 | > 7.30 | 5.30 to 6.30 | CCn1c(=O)c(-c2ccc(-c3noc(C)n3)cc2Cl)cc2cnc(Nc3ccc(C4CCN(C)CC4)c(F)c3)nc21 |  |  |  |  | 
> 7.30 | > 7.30 | 6.30 to 7.30 | ≤ 5.30 | CCn1c(=O)c(-c2ccc(-c3ccnc(C(F)(F)F)n3)cc2Cl)cc2cnc(Nc3ccc(C4CCN(C)CC4)cc3)nc21 |  |  |  |  | 
> 7.30 | > 7.30 | > 7.30 | ≤ 5.30 | CCn1c(=O)c(-c2ccc(-c3cccnc3C)cc2Cl)cc2cnc(Nc3ccc(N4CCN(C)CC4)cc3)nc21 |  |  |  |  | 
> 7.30 | 6.30 to 7.30 | 6.30 to 7.30 | ≤ 5.30 | CCn1c(=O)c(-c2ccc(-c3cccnc3C)cc2Cl)cc2cnc(Nc3ccc(C4CCN(C(C)C)CC4)cc3)nc21 |  |  |  |  | 
> 7.30 | > 7.30 | > 7.30 | ≤ 5.30 | CCn1c(=O)c(-c2ccc(-c3scnc3C)cc2Cl)cc2cnc(Nc3ccc(N4CCN(C)CC4)cc3)nc21 |  |  |  |  | 
> 7.30 | > 7.30 | 6.30 to 7.30 | ≤ 5.30 | CCN1CCN(c2ccc(Nc3ncc4cc(-c5ccc(-c6cncs6)cc5Cl)c(=O)n(CC)c4n3)cc2F)CC1 |  |  |  |  | 
> 7.30 | > 7.30 | 6.30 to 7.30 | 5.30 to 6.30 | CCn1c(=O)c(-c2ccc(-c3ncc(C)s3)cc2Cl)cc2cnc(Nc3ccc(N4CCN(C)CC4)cc3)nc21 |  |  |  |  | 
> 7.30 | > 7.30 | > 7.30 | 5.30 to 6.30 | CCN1CCC(c2ccc(Nc3ncc4cc(-c5ccc(-c6cccnc6F)cc5Cl)c(=O)n(CC)c4n3)cc2F)CC1 |  |  |  |  | 
> 7.30 | > 7.30 | > 7.30 | 5.30 to 6.30 | CCn1c(=O)c(-c2ccc(-c3cccnc3C)cc2Cl)cc2cnc(Nc3ccc(C4=CCNCC4)cc3)nc21 |  |  |  |  | 
> 7.30 | > 7.30 | 6.30 to 7.30 | ≤ 5.30 | CCN1CCN(c2ccc(Nc3ncc4cc(-c5ccc(-c6scnc6C)cc5Cl)c(=O)n(CC)c4n3)cc2)CC1 |  |  |  |  | 

From US20140163026A1, “8-ETHYL-6-(ARYL)PYRIDO[2,3-D]PYRIMIDIN-7(8H)-ONES FOR THE TREATMENT OF NERVOUS SYSTEM DISORDERS AND CANCER” (Afraxis Holdings, Inc., priority 2011, published 2014)
